Experimental data taken from BindingDB's records for PubMed 1328199 (University of Chicago, 1992).
Bridge positions count the residues as written; N and C are the ends. Square brackets hold non-standard residues; d marks the D form. Peptide text beside a SMILES is read from it. * marks the point of attachment. X1 = CC(O)[C@H](CO)N*

Experiments:
[1] = target: Somatostatin receptor type 2 (Mus musculus, UniProt P30875)
[2] = target: Somatostatin receptor type 3 (Mus musculus, UniProt P30935)
Somatostatin receptor type 3, sequence (P30935 whole entry): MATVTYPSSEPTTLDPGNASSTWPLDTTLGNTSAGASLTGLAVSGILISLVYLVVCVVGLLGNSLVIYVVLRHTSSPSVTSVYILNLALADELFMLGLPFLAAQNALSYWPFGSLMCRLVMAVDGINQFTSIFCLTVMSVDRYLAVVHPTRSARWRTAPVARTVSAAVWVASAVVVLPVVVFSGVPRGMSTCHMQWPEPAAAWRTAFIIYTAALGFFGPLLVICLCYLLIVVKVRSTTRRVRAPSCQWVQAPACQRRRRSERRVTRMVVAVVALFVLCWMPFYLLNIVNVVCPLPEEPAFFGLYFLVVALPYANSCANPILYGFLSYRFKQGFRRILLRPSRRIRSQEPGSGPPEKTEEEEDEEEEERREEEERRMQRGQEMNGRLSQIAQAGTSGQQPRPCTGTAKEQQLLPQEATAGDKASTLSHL

Somatostatin receptor type 2, sequence (P30875 whole entry): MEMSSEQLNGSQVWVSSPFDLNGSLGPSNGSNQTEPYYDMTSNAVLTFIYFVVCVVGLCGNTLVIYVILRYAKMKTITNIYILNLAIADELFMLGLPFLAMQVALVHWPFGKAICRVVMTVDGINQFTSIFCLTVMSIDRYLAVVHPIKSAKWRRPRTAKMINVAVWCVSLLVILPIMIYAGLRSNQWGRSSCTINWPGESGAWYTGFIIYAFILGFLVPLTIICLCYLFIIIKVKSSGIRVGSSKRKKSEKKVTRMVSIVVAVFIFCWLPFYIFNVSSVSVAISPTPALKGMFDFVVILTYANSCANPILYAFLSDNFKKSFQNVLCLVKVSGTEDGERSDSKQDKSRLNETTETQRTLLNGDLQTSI

Row | Structure (SMILES) | Ki [1] [nM] | Ki [2] [nM]
1 | CC(C)[C@@H]1NC(=O)[C@H](CCCCN)NC(=O)[C@@H](Cc2c[nH]c3ccccc23)NC(=O)[C@H](Cc2ccc(O)cc2)NC(=O)[C@H](C)N(C)C(=O)[C@H](Cc2ccccc2)NC1=O [CAS_3086456] | 0.07 | 268
2 | CC(O)[C@H](CO)NC(=O)[C@@H]1CSSC[C@H](NC(=O)[C@H](N)Cc2ccccc2)C(=O)N[C@@H](Cc2ccccc2)C(=O)N[C@H](Cc2c[nH]c3ccccc23)C(=O)N[C@@H](CCCCN)C(=O)N[C@@H]([C@@H](C)O)C(=O)N1 (some centres undefined) (H-[dF]CF[dW]KTC-X1; disulfide 2-7) | 0.5 | 150
